# ChEMBL document CHEMBL3639296, “Pyrazolopyrimidine compounds as kinase inhibitors” (2015)
# Molecular target: Tyrosine-protein kinase BTK (Homo sapiens, UniProt Q06187)
# Experiment: Caliper-Based Kinase Assay: A Caliper-based kinase assay (Caliper Life Sciences, Hopkinton, Mass.) was used to measure inhibition of Btk kinase activity of a compound of the present disclosure. […] The reaction was then terminated with EDTA, final concentration 20 mM and the phosphorylated reaction product was quantified on a Caliper Desktop Profiler (Caliper LabChip 3000).
# Chain of Tyrosine-protein kinase BTK (Q06187 whole entry): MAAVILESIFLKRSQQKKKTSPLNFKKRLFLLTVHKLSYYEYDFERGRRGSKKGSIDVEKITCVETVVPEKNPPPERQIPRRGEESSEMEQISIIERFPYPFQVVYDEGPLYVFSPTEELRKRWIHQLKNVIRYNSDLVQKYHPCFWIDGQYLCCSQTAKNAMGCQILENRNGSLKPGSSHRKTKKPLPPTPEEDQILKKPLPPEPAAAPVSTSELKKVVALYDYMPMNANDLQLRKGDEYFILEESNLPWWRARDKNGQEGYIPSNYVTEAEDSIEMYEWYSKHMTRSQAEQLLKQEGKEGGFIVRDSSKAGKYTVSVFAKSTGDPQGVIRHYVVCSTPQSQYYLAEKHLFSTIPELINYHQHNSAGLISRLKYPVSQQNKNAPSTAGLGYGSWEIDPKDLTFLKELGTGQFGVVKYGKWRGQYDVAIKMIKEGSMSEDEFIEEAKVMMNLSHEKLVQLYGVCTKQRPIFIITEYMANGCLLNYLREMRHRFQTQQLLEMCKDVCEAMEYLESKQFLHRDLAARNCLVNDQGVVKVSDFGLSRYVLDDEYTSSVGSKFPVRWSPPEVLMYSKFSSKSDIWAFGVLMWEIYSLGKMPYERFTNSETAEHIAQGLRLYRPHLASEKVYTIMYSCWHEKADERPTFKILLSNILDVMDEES
row,SMILES,IC50 [nM]
1,CC(C)(C=C(C#N)C(=O)N1CCC[C@H]1Cn1nc(-c2ccc(Oc3ccccc3)cc2F)c2c(N)ncnc21)NC1COC1,16.1
2,CC(C)(C)N1CCN(C(C)(C)C=C(C#N)C(=O)N2CCC[C@@H](n3nc(-c4ccc(Oc5ccccc5)cc4F)c4c(N)ncnc43)C2)CC1,0.6
3,CC(C)(C=C(C#N)C(=O)N1CCC[C@H]1Cn1nc(-c2ccc(Oc3ccccc3)cc2F)c2c(N)ncnc21)N(C1CC1)C1COC1,26
